{
  "source": "patent US6492383B1",
  "about": "“Thienopyrimidine and thienopyridine derivatives useful as anticancer agents” (Pfizer Inc., priority 1998, dated 2002)",
  "data": [
    {"units": {"melting point": "°C"}, "values": [
      {"smiles": "COc1cccc(Nc2ccc(Nc3ncnc4cc(-c5ccccc5)sc34)cc2)c1", "note": "[Example 66, N-(3-Methoxy-phenyl)-N′-(6-phenyl-thieno[3,2-d]pyrimidin-4-yl)-benzene-1,4-diamine]", "melting point": "189 to 191"},
      {"smiles": "Cc1cc2cc(Nc3ncnc4cc(-c5ccccc5)sc34)ccc2[nH]1", "note": "[Example 68, (2-Methyl-1H-indol-5-yl)-(6-phenyl-thieno[3,2-d]pyrimidin-4-yl)-amine]", "melting point": "218 to 220"},
      {"smiles": "CCN(CC)CCCn1ccc2cc(Nc3ncnc4cc(-c5ccccc5)sc34)ccc21", "note": "[Example 70, [1-(3-Diethylamino-propyl)-1H-indol-5-yl]-(6-phenyl-thieno[3,2-d]pyrimidin-4-yl) -amine]", "melting point": "178 to 180"},
      {"smiles": "Cc1nc(Nc2ccc3[nH]ccc3c2)c2sc(-c3ccccc3)cc2n1", "note": "[Example 71, (1H-Indol-5-yl)-(2-methyl-6-phenyl-thieno[3,2-d]pyrimidin-4-yl)-amine]", "melting point": "205 to 210"},
      {"smiles": "COc1ccc(Nc2ccc(Nc3nc(C)nc4cc(-c5ccccc5)sc34)cc2)cc1", "note": "[Example 72, N-(4-Methoxy-phenyl)-N′-(2-methyl-6-phenyl-thieno[3,2-d]pyrimidin-4-yl)-benzene-1,4-diamine]", "melting point": "181 to 185"},
      {"smiles": "c1ccc(COCCNc2ccc(Nc3ncnc4cc(-c5ccccc5)sc34)cc2)cc1", "note": "[Example 73, N-(2-Benzyloxy-ethyl)-N′-(6-phenyl-thieno[3,2-d]pyrimidin-4-yl)-benzene-1,4-diamine]", "melting point": "201 to 203"},
      {"smiles": "O=Cc1c[nH]c2ccc(Nc3ncnc4cc(-c5ccccc5)sc34)cc12", "note": "[Example 74, 5-(6-Phenyl-thieno[3,2-d]pyrimidin-4-ylamino)-1H-indole-3-carbaldehyde]", "melting point": "174 to 175"},
      {"smiles": "c1ccc(-c2cc3ncnc(Nc4ccc(NCc5c[nH]c6ccccc56)cc4)c3s2)cc1", "note": "[Example 76, N-(1H-Indol-3-ylmethyl)-N′-(6-phenyl-thieno[3,2-d]pyrimidin-4-yl)-benzene-1,4-diamine]", "melting point": "259 to 261"},
      {"smiles": "COc1ccc(Nc2ccc(Nc3ncnc4cc(-c5cccs5)sc34)cc2)cc1", "note": "[Example 81, N-(4-Methoxy-phenyl)-N′-(6-thiophen-2-yl-thieno[3,2-d]pyrimidin-4-yl)-benzene-1,4-diamine]", "melting point": "231 to 240"},
      {"smiles": "Cc1c[nH]c2ccc(Nc3ncnc4cc(-c5ccccc5)sc34)cc12", "note": "[Example 82, (3-Methyl-1H-indol-5-yl)-(6-phenyl-thieno[3,2-d]pyrimidin-4-yl)-amine]", "melting point": "221 to 223"},
      {"smiles": "COc1ccc(-c2cc3ncnc(Nc4ccc5[nH]ccc5c4)c3s2)cn1", "note": "[Example 86, (1H-Indol-5-yl)-[6-(6-methoxy-pyridin-3-yl)-thieno[3,2-d]pyrimidin-4-yl]-amine]", "melting point": "243 to 249"},
      {"smiles": "COc1ccc(Nc2ccc(Nc3ccnc4cc(-c5ccc(OC)nc5)sc34)cc2)cc1", "note": "[Example 87, N-(4-Methoxy-phenyl)-N′-[2-(6-methoxy-pyridin-3-yl)-thieno[3,2-b]pyridin-7-yl]-benzene-1,4-diamine]", "melting point": "175 to 184"}
    ]}
  ]
}
